This is an account of results in ChEMBL document CHEMBL3045033, “Synthesis of new potential anticancer agents based on 4-thiazolidinone and oleanane scaffolds” (Med Chem Res, 2012).

Series [1] concerns IGROV-1. As to the kind of experiment: Cytotoxicity against Homo sapiens (human) IGROV1 cells after 48 hr by SRB assay. The series is classed as functional. (Sulforhodamine B stains cellular protein and so reports cell mass.)
Series [2] has as its system UACC-62. In words: Cytotoxicity against Homo sapiens (human) UACC62 cells after 48 hr by SRB assay. The series is classed as functional. Particulars: UACC-62, 48 h.
Series [3] concerns MCF7. In words: Cytotoxicity against Homo sapiens (human) MCF7 cells assessed as cellular growth at 10^-5 M after 48 hr by SRB assay relative to untreated control. The series is classed as functional.
Series [4] has as its system OVCAR-8. As to the kind of experiment: Cytotoxicity against Homo sapiens (human) OVCAR8 cells assessed as cellular growth at 10^-5 M after 48 hr by SRB assay relative to untreated control. The series is classed as functional.
The test system of series [5] is U-251. In words: Cytotoxicity against Homo sapiens (human) U251 cells assessed as cellular growth at 10^-5 M after 48 hr by SRB assay relative to untreated control. The series is classed as functional.
Series [6] relates to HCT-116. In words: Cytotoxicity against Homo sapiens (human) HCT116 cells assessed as cellular growth at 10^-5 M after 48 hr by SRB assay relative to untreated control. It counts as functional.
Series [7] deals with NCI-H522. In words: Cytotoxicity against Homo sapiens (human) NCI-H522 cells assessed as cellular growth at 10^-5 M after 48 hr by SRB assay relative to untreated control. The series is classed as functional.
The test system of series [8] is NCI-H460. In words: Cytotoxicity against Homo sapiens (human) NCI-H460 cells assessed as cellular growth at 10^-5 M after 48 hr by SRB assay relative to untreated control. It counts as functional.
Series [9] has as its system A549. As to the kind of experiment: Cytotoxicity against Homo sapiens (human) A549 cells assessed as cellular growth at 10^-5 M after 48 hr by SRB assay relative to untreated control. The series is classed as functional.
Series [10] deals with SK-MEL-2. As to the kind of experiment: Cytotoxicity against Homo sapiens (human) SK-MEL-2 cells after 48 hr by SRB assay. The series is classed as functional. The conditions noted are these: SK-MEL-2, 48 h.
The test system of series [11] is Malme-3M. As to the kind of experiment: Cytotoxicity against Homo sapiens (human) MALME-3M cells after 48 hr by SRB assay. The series is classed as functional. Particulars: for CC50: read-out: pLC50 (the source's name) (converted).
Series [12] has as its system SF-268. In words: Cytotoxicity against Homo sapiens (human) SF268 cells after 48 hr by SRB assay. The series is classed as functional. The conditions noted are these: SF-268, 48 h.
The test system of series [13] is NCI-H522. As to the kind of experiment: Cytotoxicity against Homo sapiens (human) NCI-H522 cells after 48 hr by SRB assay. Particulars: NCI-H522, 48 h; for CC50: read-out: pLC50 (the source's name) (converted). The series is classed as functional.
Series [14] has as its system MDA-MB-468. In words: Cytotoxicity against Homo sapiens (human) MDA-MB-468 cells after 48 hr by SRB assay. The series is classed as functional. The conditions noted are these: MDA-MB-468, 48 h, read-out: pLC50 (the source's name) (converted).
Series [15] concerns Hs-578T. In words: Cytotoxicity against Homo sapiens (human) Hs578T cells assessed as cellular growth at 10^-5 M after 48 hr by SRB assay relative to untreated control. The series is classed as functional.
The test system of series [16] is TK-10. As to the kind of experiment: Cytotoxicity against Homo sapiens (human) TK10 cells assessed as cellular growth at 10^-5 M after 48 hr by SRB assay relative to untreated control. The series is classed as functional.
Series [17] relates to A498. In words: Cytotoxicity against Homo sapiens (human) A498 cells assessed as cellular growth at 10^-5 M after 48 hr by SRB assay relative to untreated control. It counts as functional.
In series [18] the test system is MOLT-4. As to the kind of experiment: Cytotoxicity against Homo sapiens (human) MOLT4 cells assessed as cellular growth at 10^-5 M after 48 hr by SRB assay relative to untreated control. The series is classed as functional.
In series [19] the test system is SF-295. In words: Cytotoxicity against Homo sapiens (human) SF295 cells assessed as cellular growth at 10^-5 M after 48 hr by SRB assay relative to untreated control. The series is classed as functional.
A short description of series [20]: Toxicity in mouse. It counts as organism-based. Particulars: in vivo.
For series [21], the system named is HL-60(TB). As to the kind of experiment: Cytotoxicity against Homo sapiens (human) HL-60(TB) cells assessed as cellular growth at 10^-5 M after 48 hr by SRB assay relative to untreated control. The series is classed as functional.
Series [22] concerns CCRF-CEM. As to the kind of experiment: Cytotoxicity against Homo sapiens (human) CCRF-CEM cells assessed as cellular growth at 10^-5 M after 48 hr by SRB assay relative to untreated control. The series is classed as functional.
In series [23] the test system is T47D. As to the kind of experiment: Cytotoxicity against Homo sapiens (human) T47D cells assessed as cellular growth at 10^-5 M after 48 hr by SRB assay relative to untreated control. The series is classed as functional.
The test system of series [24] is MDA-MB-468. As to the kind of experiment: Cytotoxicity against Homo sapiens (human) MDA-MB-468 cells at 10^-4 to 10^-8 M after 48 hr by SRB assay. It counts as functional. Particulars: MDA-MB-468, 48 h, read-out: pTGI (converted).

“And” between values parts separate entries of the source, which are not always exact repeats. Identical values can stand only once.

What is called GI50 is the concentration that inhibits growth by half. High values mean lower sensitivity of the cells, low ones greater sensitivity of the cells. Consider `COC(=O)[C@]12CCC(C)(C)C[C@H]1C1=CC[C@@H]3[C@@]4(C)CC/C(=N\O)C(C)(C)[C@@H]4CC[C@@]3(C)[C@]1(C)CC2`, for which the GI50 is 33.9 µM in series [1] (Homo sapiens, IGROV-1, 48 h); 22.4 µM in series [2]; 64.6 µM in series [10]; 24 µM in [12]; 26.3 µM in series [13]. Also, the Activity turned out to be 26.08% in series [3]; 11.3% in [4]; 33.89% in series [5]; 3.39% in [6]; 23.74% in series [7]; 44.14% in [8]. In [9], the Activity is listed as -41.06%. The CC50 in [11] and in series [13] was above 100 µM each time.

As for `CC1(C)CC[C@@]23CC[C@]4(C)[C@@](OC2=O)([C@@H]3C1)[C@@H](Br)C[C@@H]1[C@@]2(C)CC/C(=N\O)C(C)(C)[C@@H]2CC[C@]14C`, the CC50 in series [14], in [11] and in series [13] was above 100 µM throughout. For the same compound, the GI50 in series [2] is 18.6 µM; in series [10], above 100 µM; in [11] it was 3.02 µM; in series [12], 27.5 µM. The Activity in [15] worked out at 258.88%; in [16] it was 31.05%; in [17] it was 150.51%; in series [18], 20.29%; in series [19], 19.14%.

In the case of `COC(=O)[C@]12CCC(C)(C)C[C@H]1C1=CC[C@@H]3[C@@]4(C)CC/C(=N\OC(=O)/C=C5/SC(=O)NC5=O)C(C)(C)[C@@H]4CC[C@@]3(C)[C@]1(C)CC2`, in [20], the MTD was above 400 mg/kg. The Activity is -46.91% in [21], -24.8% in series [22], 2.28% in [18] and 9.18% in series [23]. Besides, the GI50 in [1] is 8.91 µM and 1.91 µM. The TGI in series [24] was 6.61 µM.
